Assay results taken from ChEMBL document CHEMBL5104180, “Design, Synthesis, and Evaluation of New Sugar-Substituted Imidazole Derivatives as Selective c-MYC Transcription Repressors Targeting the Promoter G-Quadruplex” (J Med Chem, 2022).
pIC50, pKd: −log10 of the molar value. The source made the active and inactive calls. The rule behind the calls is not given here.

Key:
Quadruplex DNA [1] = experiment: Stabilization of c-MYC G4 quadruplex DNA Pu22 (unknown origin) assessed as change in melting temperature at 2 uM by CD spectroscopy; assay type: nucleic-acid assay
Quadruplex DNA [2] = experiment: Binding affinity to c-MYC G4- quadruplex DNA Pu22 (unknown origin) assessed as binding constant by SPR analysis; assay type: nucleic-acid assay
[3] = Binding affinity to G-rich KRAS DNA (unknown origin) assessed as binding constant by SPR analysis
[4] = Binding affinity to G-rich HRAS DNA (unknown origin) assessed as binding constant by SPR analysis
[5] = Binding affinity to G-rich NRAS RNA (unknown origin) assessed as binding constant by SPR analysis
[6] = Binding affinity to human G-rich Htg22 DNA assessed as binding constant by SPR analysis
[7] = Binding affinity to Hairpin DNA (unknown origin) assessed as binding constant by SPR analysis
Quadruplex DNA [8] = experiment: Binding affinity to c-MYC G4 quadruplex DNA Pu22 (unknown origin) assessed as binding constant by SPR analysis; assay type: nucleic-acid assay
RNA = experiment: Binding affinity to NRAS RNA mutant (unknown origin) assessed as binding constant by SPR analysis
HepG2 [9] = experiment: Cytotoxicity against human HepG2 cells assessed as reduction in cell viability measured after 48 hrs by MTT assay; assay type: functional, cell-based; conditions: HepG2, 48 h
MDA-MB-231 [10] = experiment: Cytotoxicity against human MDA-MB-231 cells assessed as reduction in cell viability measured after 48 hrs by MTT assay; assay type: functional, cell-based; conditions: MDA-MB-231, 48 h
[11] = Cytotoxicity against human HBL-100 cells assessed as reduction in cell viability measured after 48 hrs by MTT assay; assay type: toxicity, cell-based
[12] = system: NM23-H2/c-MYC G4 quadruplex DNA; experiment: Disruption of NM23-H2/c-MYC G4 quadruplex DNA (unknown origin) interaction incubated for 1 hrs by ELISA; assay type: protein assay
[13] = system: BLM/c-MYC G4 quadruplex DNA; experiment: Disruption of BLM/c-MYC G4 quadruplex DNA (unknown origin) interaction incubated for 1 hrs by ELISA; assay type: protein assay
[14] = system: DHX36/c-MYC G4 quadruplex DNA; experiment: Disruption of DHX36/c-MYC G4 quadruplex DNA (unknown origin) interaction incubated for 1 hrs by ELISA; assay type: protein assay
MDA-MB-231 [15] = experiment: Cytotoxicity against human MDA-MB-231 cells measured after 48 hrs; assay type: functional, cell-based
Quadruplex DNA [16] = experiment: Inhibition of c-MYC G4 quadruplex DNA in HEK293T cells co-transfected with Renilla and firefly luciferase assessed as decrease in relative luciferase at 2.5 to 5 uM measured after 24 hrs by dual luciferase reporter assay; assay type: cell-based; conditions: Homo sapiens, dose 2.5-5 µM
Quadruplex DNA [17] = experiment: Inhibition of c-MYC G4 quadruplex DNA in HEK293T cells co-transfected with Renilla and firefly luciferase assessed as decrease in relative luciferase measured after 24 hrs by dual luciferase reporter assay; assay type: cell-based; conditions: Homo sapiens
MDA-MB-231 [18] = experiment: Downregulation of c-MYC mRNA level in human MDA-MB-231 cells measured after 24 hrs by RT-PCR analysis; assay type: functional, cell-based
MDA-MB-231 [19] = experiment: Downregulation of c-MYC expression in human MDA-MB-231 cells measured after 48 hrs by western blot analysis; assay type: functional, cell-based
MCF7 = experiment: Cytotoxicity against human MCF7 cells measured after 48 hrs; assay type: functional, cell-based
HepG2 [20] = experiment: Cytotoxicity against human HepG2 cells measured after 48 hrs; assay type: functional, cell-based
SiHa = experiment: Cytotoxicity against human SiHa cells measured after 48 hrs; assay type: functional, cell-based
MDA-MB-231 [21] = experiment: Antitumor activity against human MDA-MB-231 cells xenografted in BALB/c-nu/nu mouse assessed as relative increment ratio at 2.5 mg/kg, ip measured for 24 days; assay type: functional; conditions: time 24 day
MDA-MB-231 [22] = experiment: Antitumor activity against human MDA-MB-231 cells xenografted in BALB/c-nu/nu mouse assessed as tumor growth inhibition at 2.5 mg/kg, ip measured for 24 days; assay type: functional; conditions: MDA-MB-231, 576 h, time 24 day, read-out: TGI
Quadruplex DNA [23] = experiment: Inhibition of c-MYC G4 quadruplex DNA mutant in HEK293T cells co-transfected with Renilla and firefly luciferase assessed as decrease in relative luciferase at 2.5 to 5 uM measured after 24 hrs by dual luciferase reporter assay; assay type: cell-based; conditions: Homo sapiens, dose 2.5-5 µM
MDA-MB-231 [24] = experiment: Downregulation of VEGF expression in human MDA-MB-231 cells measured after 48 hrs by western blot analysis; assay type: functional, cell-based

| SMILES | ΔTm (Quadruplex DNA [1]) [°C] | pKd (Quadruplex DNA [2]) | pKd [3] | pKd [4] | pKd [5] | pKd [6] | pKd [7] | pKd (Quadruplex DNA [8]) | pKd (RNA) | pIC50 (HepG2 [9]) | pIC50 (MDA-MB-231 [10]) | also measured |
| --- | --- | --- | --- | --- | --- | --- | --- | --- | --- | --- | --- | --- |
| CCn1c2ccccc2c2cc(-c3nc(-c4ccc(N5CCN(C)CC5)cc4)c(-c4ccc(N5CCN(C)CC5)cc4)n3-c3ccc(OC)cc3)ccc21 | 12.5 | 5.15 | 4.82 | 4.82 | < 4.70 | < 4.70 | < 4.70 | < 4.70 | < 4.70 | 5.21 | 5.29 | IC50 at 48 h [11]: 11.2 µM; pIC50 [12]: 4.59; pIC50 [13]: 4.84; pIC50 [14]: 5.30; Activity (MDA-MB-231 [15]): Active; inhibition (Quadruplex DNA [16]): Active; Activity (Quadruplex DNA [17]): Active; Activity (MDA-MB-231 [18]): Active; Activity (MDA-MB-231 [19]): Active; Activity (MCF7): Active; Activity (HepG2 [20]): Active; Activity (SiHa): Active; Activity (MDA-MB-231 [21]): 72.3%; inhibition in vivo at 2.5 mg/kg (MDA-MB-231 [22]): 55.5% |
| CCn1c2ccccc2c2cc(-c3nc(-c4ccc(N5CCN(C)CC5)cc4)c(-c4ccc(N5CCN(C)CC5)cc4)n3-c3ccc(OCCOCCO)cc3)ccc21 | 20.8 | 5.59 | 5.09 | 5.23 | 4.80 | < 4.70 | < 4.70 | < 4.70 | < 4.70 | – | – | pIC50 [12]: 5.96; pIC50 [13]: 5.41; pIC50 [14]: 5.09 |
| COc1ccc(-n2c(-c3ccc4c(c3)c3ccccc3n4Cc3cn(CCOCCO[C@@H]4O[C@H](COC(C)=O)[C@@H](OC(C)=O)[C@H](OC(C)=O)[C@H]4OC(C)=O)nn3)nc(-c3ccc(N4CCN(C)CC4)cc3)c2-c2ccc(N3CCN(C)CC3)cc2)cc1 | 15.9 | 5.52 | < 4.70 | < 4.70 | < 4.70 | < 4.70 | < 4.70 | < 4.70 | < 4.70 | 4.96 | 5.19 | IC50 at 48 h [11]: 19.3 µM |
| Cc1sc2c(c1C)C(c1ccc(Cl)cc1)=NC(CC(=O)OC(C)(C)C)c1nnc(C)n1-2 (configuration not stated) | – | – | – | – | – | – | – | – | – | – | – | inhibition (Quadruplex DNA [16]): Active; Activity (Quadruplex DNA [17]): Active; Activity (Quadruplex DNA [23]): Active; Activity (MDA-MB-231 [18]): Active; Activity (MDA-MB-231 [19]): Active; Activity (MDA-MB-231 [24]): Active |
| CCn1c2ccccc2c2cc(-c3nc(-c4ccc(N5CCN(C)CC5)cc4)c(-c4ccc(N5CCN(C)CC5)cc4)n3-c3ccc(OCCOCCOC4(C)O[C@H]5O[C@H](COC(C)=O)[C@@H](OC(C)=O)[C@H](OC(C)=O)[C@H]5O4)cc3)ccc21 (single isomer, unassigned) | 22.1 | 5.74 | 4.90 | 4.86 | < 4.70 | < 4.70 | < 4.70 | < 4.70 | < 4.70 | 5.52 | 5.54 | IC50 at 48 h [11]: 77.8 µM; pIC50 [12]: 5.43; pIC50 [13]: 5.17; pIC50 [14]: 4.80 |
| CCn1c2ccccc2c2cc(-c3nc(-c4ccc(N5CCN(C)CC5)cc4)c(-c4ccc(N5CCN(Cc6cn(CCOCCO[C@@H]7O[C@H](CO)[C@@H](O)[C@H](O)[C@H]7O)nn6)CC5)cc4)[nH]3)ccc21 (single isomer, unassigned) | 19.2 | 5.77 | 5.32 | 5.60 | 4.93 | < 4.70 | < 4.70 | < 4.70 | < 4.70 | – | – | – |
| CCn1c2ccccc2c2cc(-c3nc(-c4ccc(N5CCN(C)CC5)cc4)c(-c4ccc(N5CCN(C)CC5)cc4)n3-c3ccc(OCCCOC4(C)O[C@H]5O[C@H](COC(C)=O)[C@@H](OC(C)=O)[C@H](OC(C)=O)[C@H]5O4)cc3)ccc21 (single isomer, unassigned) | 16 | 5.39 | < 4.70 | < 4.70 | < 4.70 | < 4.70 | < 4.70 | < 4.70 | < 4.70 | 5.11 | 5.44 | IC50 at 48 h [11]: 4.4 µM |
| CCn1c2ccccc2c2cc(-c3nc(-c4ccc(N5CCN(C)CC5)cc4)c(-c4ccc(N5CCN(C)CC5)cc4)n3-c3ccc(OCCOCCO[C@@H]4O[C@H](CO)[C@@H](O)[C@H](O)[C@H]4O)cc3)ccc21 (single isomer, unassigned) | 18 | 5.80 | < 4.70 | < 4.70 | < 4.70 | < 4.70 | < 4.70 | < 4.70 | < 4.70 | < 4.49 | < 4.49 | – |
| CCn1c2ccccc2c2cc(-c3nc(-c4ccc(N5CCN(C)CC5)cc4)c(-c4ccc(N5CCN(C)CC5)cc4)n3-c3ccc(OCCCO[C@@H]4O[C@H](CO)[C@@H](O)[C@H](O)[C@H]4O)cc3)ccc21 (single isomer, unassigned) | 16.7 | 5.74 | 4.82 | 4.84 | < 4.70 | < 4.70 | < 4.70 | < 4.70 | < 4.70 | < 4.49 | < 4.49 | – |
| CCn1c2ccccc2c2cc(-c3nc(-c4ccc(N5CCN(C)CC5)cc4)c(-c4ccc(N5CCN(C)CC5)cc4)n3-c3ccc(OCCOCCO[C@@H]4O[C@H](CO)[C@@H](O)[C@H](O)[C@H]4NC(=O)C(F)(F)F)cc3)ccc21 (single isomer, unassigned) | 16.3 | 5.39 | 4.75 | 4.70 | 4.79 | < 4.70 | < 4.70 | < 4.70 | < 4.70 | < 4.49 | < 4.49 | – |
| CCn1c2ccccc2c2cc(-c3nc(-c4ccc(N5CCN(C)CC5)cc4)c(-c4ccc(N5CCN(Cc6cn(CCOCCO[C@@H]7O[C@H](COC(C)=O)[C@@H](OC(C)=O)[C@H](OC(C)=O)[C@H]7OC(C)=O)nn6)CC5)cc4)[nH]3)ccc21 (single isomer, unassigned) | 17.8 | 6.00 | 4.76 | 5.09 | < 4.70 | < 4.70 | < 4.70 | < 4.70 | < 4.70 | < 4.49 | < 4.49 | – |
| CCn1c2ccccc2c2cc(-c3nc(-c4ccc(N5CCN(C)CC5)cc4)c(-c4ccc(N5CCN(Cc6cn([C@@H]7O[C@H](CO)[C@H](O)[C@H](O)[C@H]7O)nn6)CC5)cc4)[nH]3)ccc21 (single isomer, unassigned) | 18.4 | 5.80 | 5.24 | 5.57 | 5.00 | < 4.70 | < 4.70 | < 4.70 | < 4.70 | – | – | – |
| CCn1c2ccccc2c2cc(-c3nc(-c4ccc(N5CCN(C)CC5)cc4)c(-c4ccc(N5CCN(C)CC5)cc4)n3-c3ccc(OCCCO[C@@H]4O[C@H](CO)[C@H](O)[C@H](O)[C@H]4O)cc3)ccc21 (single isomer, unassigned) | 16.9 | 5.85 | < 4.70 | 4.78 | < 4.70 | < 4.70 | < 4.70 | < 4.70 | < 4.70 | < 4.49 | < 4.49 | – |
| COc1ccc(-n2c(-c3ccc4c(c3)c3ccccc3n4Cc3cn(CCOCCO[C@@H]4O[C@H](CO)[C@@H](O)[C@H](O)[C@H]4O)nn3)nc(-c3ccc(N4CCN(C)CC4)cc3)c2-c2ccc(N3CCN(C)CC3)cc2)cc1 (single isomer, unassigned) | 17.7 | 5.66 | 4.75 | 4.81 | 4.72 | < 4.70 | < 4.70 | < 4.70 | < 4.70 | < 4.49 | < 4.49 | – |
| CCn1c2ccccc2c2cc(-c3nc(-c4ccc(N5CCN(C)CC5)cc4)c(-c4ccc(N5CCN(C)CC5)cc4)n3-c3ccc(OCCOCCO[C@@H]4O[C@H](CO)[C@H](O)[C@H](O)[C@H]4O)cc3)ccc21 (single isomer, unassigned) | 16.2 | 5.70 | 4.74 | 4.84 | 4.79 | < 4.70 | < 4.70 | < 4.70 | < 4.70 | < 4.49 | < 4.49 | – |
